Assay results reported in the PolyMetriX glass transition set.

Compound	glass transition temperature
*C(=O)OC1CC(*)N(C(=O)OCc2ccccc2)C1 (repeat unit)	78.00 °C
*C(=O)OCCCCCCCCCCCCOC(=O)c1ccc2c(c1)C(=O)N(c1ccc(Oc3ccc(N4C(=O)c5ccc(*)cc5C4=O)cc3)cc1)C2=O (repeat unit)	105.00 °C
*C(=O)OCCCCCCCCCOC(=O)c1ccc(N2C(=O)c3ccc(*)cc3C2=O)cc1 (repeat unit)	62.00 °C
*C(=O)OCCCCCCCCOC(=O)c1ccc(N2C(=O)c3ccc(*)cc3C2=O)cc1 (repeat unit)	65.00 °C
*C(=O)OCCCCCCCOC(=O)c1ccc(N2C(=O)c3ccc(*)cc3C2=O)cc1 (repeat unit)	77.00 °C
*C(=O)OCCCCCCOC(=O)c1ccc(N2C(=O)c3ccc(*)cc3C2=O)cc1 (repeat unit)	80.50 °C
*C(=O)OCCCCCOC(=O)c1ccc(N2C(=O)c3ccc(*)cc3C2=O)cc1 (repeat unit)	90.00 °C
*CC(F)(F)C(F)(F)C(F)(F)C(F)(F)COC(=O)O* (repeat unit)	-41.00 °C
*CC(F)(F)C(F)(F)C(F)(F)COC(=O)c1cccc(-c2cccc(C(=O)O*)c2)c1 (repeat unit)	45.00 °C
*CC(F)(F)C(F)(F)C(F)(F)COC(=O)c1cccc(C(F)(F)C(F)(F)C(F)(F)C(F)(F)C(F)(F)c2cccc(C(=O)O*)c2)c1 (repeat unit)	29.00 °C
*CC(O)C(O)COC(=O)O* (repeat unit)	39.60 °C
*CC1CCC(COC(=O)C2CCC(C(=O)O*)CC2)CC1 (repeat unit)	77.00 °C
*CC1CCC(COC(C)OC(=O)c2ccc(C(=O)OC(C)O*)c3ccccc23)CC1 (repeat unit)	60.00 °C
*CC1CCC(COC(C)OC(=O)c2ccc(C(=O)OC(C)O*)cc2)CC1 (repeat unit)	61.00 °C
*CCCC(=O)NNC(=O)c1ccc(C(=O)NNC(=O)CCCOc2ccc(O*)c(C)c2)cc1 (repeat unit)	139.00 °C
*CCCCCC(=O)NNC(=O)c1ccc(C(=O)NNC(=O)CCCCCOc2ccc(O*)c(C)c2)cc1 (repeat unit)	126.00 °C
*CCCCCCCCCCCCOC(=O)c1ccc(-c2ccc(C(=O)O*)cc2)cc1 (repeat unit)	50.50 °C

Compound	glass transition temperature
*CCCCCCCCCCCOC(=O)c1ccc2cc(C(=O)O*)ccc2c1 (repeat unit)	43.00 °C
*CCCCCCCCCCOC(=O)c1ccc2cc(C(=O)O*)ccc2c1 (repeat unit)	50.50 °C
*CCCCCCCCCCOC(=O)c1cccc(C(=O)O*)c1 (repeat unit)	-22.50 °C
*CCCCCCCCCCOc1ccc(/C=C/c2ccc(OCCCCCCCCCCOP(=O)(O*)OCCCCCCCCCCOc3ccc(/N=N/c4ccc(Cl)cc4)cc3)cc2)cc1 (repeat unit)	60.00 °C
*CCCCCCCCCCOc1ccc(/C=C2\CC/C(=C\c3ccc(OCCCCCCCCCCOP(=O)(O*)OCC)c(OC)c3)C2=O)cc1OC (repeat unit)	47.00 °C
*CCCCCCCCCOC(=O)c1ccc(C(=O)O*)cc1 (repeat unit)	35.00 °C
*CCCCCCCOC(=O)c1ccc2cc(C(=O)O*)ccc2c1 (repeat unit)	52.50 °C
*CCCCCCOC(=O)C(C(=O)OCCCCCCOc1ccc(-n2on2-c2ccc(O*)cc2)cc1)c1ccccc1 (repeat unit)	23.00 °C
*CCCCCCOC(=O)C(CCCCCOc1ccc(/N=N/c2ccncc2)cc1)C(=O)OCCCCCCOc1ccc(-c2ccc(O*)cc2)cc1 (repeat unit)	53.60 °C
*CCCCCCOC(=O)C(CCCCCP(=O)(O)O)C(=O)OCCCCCCOc1ccc(-n2on2-c2ccc(O*)cc2)cc1 (repeat unit)	17.00 °C
*CCCCCCOC(=O)O* (repeat unit)	-42.00 °C
*CCCCCCOC(=O)OCCCCCCCCCCOC(=O)OCCCCCCOc1ccc(C(=O)c2ccc(O*)cc2)cc1 (repeat unit)	-13.00 °C
*CCCCCCOC(=O)OCCCCCCCCCCOC(=O)OCCCCCCn1c(=O)c2cc3c(=O)n(*)c(=O)c3cc2c1=O (repeat unit)	-2.00 °C
*CCCCCCOC(=O)OCCCCCCCCCOC(=O)OCCCCCCOc1ccc(C(=O)c2ccc(O*)cc2)cc1 (repeat unit)	-6.00 °C
*CCCCCCOC(=O)OCCCCCCCCOC(=O)OCCCCCCOc1ccc(C(=O)c2ccc(O*)cc2)cc1 (repeat unit)	-7.70 °C
*CCCCCCOC(=O)OCCCCCCN1C(=O)c2ccc(-c3ccc4c(c3)C(=O)N(*)C4=O)cc2C1=O (repeat unit)	71.00 °C
*CCCCCCOC(=O)OCCCCCCN1C(=O)c2ccc(C(=O)c3ccc4c(c3)C(=O)N(*)C4=O)cc2C1=O (repeat unit)	76.00 °C
